From publication PMC5942189 (Journal of the American Chemical Society, 2018)

Assays:
[1] = system: Escherichia coli W3110 (wild-type); test: MIC determination in Mueller-Hinton broth, E. coli W3110; type: cell-based; settings: standard Mueller-Hinton broth assay
[2] = system: multi-drug-resistant Acinetobacter baumannii (Ab) 5075; test: MIC determination in Mueller-Hinton broth, A. baumannii 5075; type: cell-based; settings: multi-drug-resistant A. baumannii Ab5075; standard Mueller-Hinton broth assay
[3] = system: E. coli WD101 (isogenic CAMP-resistant mutant, colistin-resistant); test: MIC determination in Mueller-Hinton broth, E. coli WD101; type: cell-based, Escherichia coli; settings: standard Mueller-Hinton broth assay

## N-AlTRSSRAGLQFPVGRVHRLLRKF-Hy (sidechain bridge or staple) [HyRes buforin]
[1]
  MIC: 8 µM
[2]
  MIC: 4 µM
[3]
  MIC: 16 µM

## N-XTRSSRAGLQFPVGRVHRLLRXK-C [DiHy buforin]
[2]
  MIC: 64 µM

## N-XTRSSRAGLQFPXVGRVHRLLRXK-C [TriAl buforin]
[2]
  MIC: 64 µM
